According to US6927236B2, “Coniosulfides and their derivatives, processes for preparing them, and their use as pharmaceuticals” (Aventis Pharma Deutschland GmbH., priority 2001, dated 2005):

Columns and labels:
[1] = target: T1, amyloid precursor protein - FE65 interaction (Homo sapiens, UniProt O00213); assay: Test for the ability to inhibit the APP-FE65 interaction (energy transfer, Eu-cryptate/XL665); assay type: binding; conditions: for IC50: biotin-cAPP / GST-PTB2, emission at 665 nm and 615 nm, read-out: Inhibition of the amyloid precursor protein - FE65 interaction, IC50
T1 construct: 1 μL of GST-PTB2 (20 nM in Buffer A) was added
T1 sequence (O00213 542-699 limits assumed): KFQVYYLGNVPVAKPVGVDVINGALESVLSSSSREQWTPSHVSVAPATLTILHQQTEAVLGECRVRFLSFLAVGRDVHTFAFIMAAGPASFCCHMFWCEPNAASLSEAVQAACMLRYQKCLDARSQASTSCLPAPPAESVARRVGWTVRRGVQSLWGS
Procedure: Test for the Ability to Inhibit the APP-FE65 Interaction
1 μl of the solution to be tested was pipetted, together with 30 μM 32 mer cAPP in Buffer A, into a microtiter plate. 1 μl of biotin-cAPP (10 nM, dissolved in Buffer A) was then added. After incubating for 15 minutes, 1 μL of GST-PTB2 (20 nM in Buffer A) was added and the plate was incubated once again for 15 minutes. 4 μl of antibody mixture (Streptavidin labeled with Eu-cryptate, […] per well; monoclonal anti-GST antibody labeled with XL665, […] in Buffer B) were then added. After 30 minutes at room temperature, the emission signal of the energy transfer, and the europium signal, were measured at 665 nm and 615 nm in a Tecan ultraphotometer after the test solution had been activated with light at a wavelength of 340 nm.
The IC50 values listed in Table 1 were found for the inhibition of the amyloid precursor protein—FE65 interaction.

[2] = Solubility (appearance / physicochemical properties); conditions: for Solubility in organic solvents: medium-polar and polar organic solvents
[3] = Stability in solution (appearance / physicochemical properties)

Row | Structure (SMILES) | IC50 [1] | Solubility in organic solvents [2] | Solubility in water [2] | Stability in neutral and mildly acidic medium [3] | Stability in strongly acid and strongly alkaline solutions [3] | Inhibition of the APP-FE65 interaction (in words) [1]
1 | CC(=O)NCC(=O)N/C(=C\SC/C=C(\C)CC/C=C(\C)CCC(C)=C(C)C)C(=O)O [Coniosulfide B] | 2.6 µM | soluble | not particularly soluble | Stable | unstable | –
2 | C/C=C/C=C/C1C(C)=CC2CC(C)CCC2C1(C)/C(O)=C1\C(=O)NC(C(C)O)C1=O (centres unmarked) [Coniosetin, coniosetin] | 28 µM | soluble | not particularly soluble | Stable | unstable | inhibits the APP-FE65 reaction
3 | CC(=O)NCC(=O)N/C(=C\SC/C=C(\C)CC/C=C(\C)CCC=C(C)C)C(=O)O [Coniosulfide A] | 2.3 µM | soluble | not particularly soluble | Stable | unstable | –
4 | CC(=O)NCC(=O)NCC(=O)N/C(=C\SC/C=C(\C)CC/C=C(\C)CCC=C(C)C)C(=O)O [Coniosulfide C] | 3.8 µM | soluble | not particularly soluble | Stable | unstable | –
5 | CC(=O)NCC(=O)NCC(=O)N/C(=C\SC/C=C(\C)CC/C=C(\C)CCC(C)=C(C)C)C(=O)O [Coniosulfide D] | 3.8 µM | soluble | not particularly soluble | Stable | unstable | –
